Reference: patent US20210040074A1 (The United States of America,as represented by the …, priority 2018, published 2021)

Assays:
human D1R = human D1R (Homo sapiens, UniProt P21728); assay: D1R β-arrestin recruitment assay (DiscoverX PathHunter, CHO-K1 cells)
D4R = target: T1, D4R (Homo sapiens, UniProt P21917); assay: D4 β-arrestin recruitment assay (DiscoverX PathHunter, CHO-K1 cells); format: cell-based; parameters: inferred from the same PathHunter system described for D1R and D5R; host or cells: CHO-K1; details: for D4 Beta-Arrestin: DA + 50 μM PAM, Fold Change EC50: fold change of dopamine EC50, 50 μM compound
T1 sequence (P21917 1-419): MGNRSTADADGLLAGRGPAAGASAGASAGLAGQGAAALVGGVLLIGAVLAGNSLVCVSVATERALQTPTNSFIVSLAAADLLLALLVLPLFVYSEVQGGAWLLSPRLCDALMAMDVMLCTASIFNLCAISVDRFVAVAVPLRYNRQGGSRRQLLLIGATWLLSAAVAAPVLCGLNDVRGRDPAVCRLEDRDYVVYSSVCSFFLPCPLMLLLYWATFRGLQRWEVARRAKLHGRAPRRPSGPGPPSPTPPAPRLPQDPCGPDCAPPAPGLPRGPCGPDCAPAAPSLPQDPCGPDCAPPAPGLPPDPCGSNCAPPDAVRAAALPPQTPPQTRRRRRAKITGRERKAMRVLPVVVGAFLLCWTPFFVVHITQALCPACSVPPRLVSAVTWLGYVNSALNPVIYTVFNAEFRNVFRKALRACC
Procedure: (§1) β-arrestin Recruitment Assay. Agonist-mediated recruitment of β-arrestin-2 to all five DARs was determined using the DiscoveRx PathHunter complementation assay (DiscoverX Inc, Fremont, Calif.), as previously described (Free, et. al., 2014; Conroy, et. al., 2015). […] Following 18-24 h of incubation, the cells were treated with the indicated concentrations of compound in PBS buffer containing 0.2 mM sodium metabisulfite, and incubated at 37° C. for 90 min. DiscoverX reagent was added to cells according to the manufacturer's protocol, followed by a 60 min incubation in the dark at room temperature. Luminescence was measured on a Hamamatsu FDSS μ-Cell reader (Hamamatsu, Bridgewater, N.J.) and data were collected using the FDSS software.

D5 [1] = target: T2, D5 (Homo sapiens, UniProt P21918); assay: D5R β-arrestin recruitment assay (DiscoverX PathHunter, CHO cells); format: cell-based; parameters: host or cells: CHO-K1; details: for D5 Beta-Arrestin: DA + 50 μM PAM, Fold Change EC50: fold change of dopamine EC50, 50 μM compound
Procedure: as §1, with “Assay.” for “Assay. Agonist-mediated recruitment of β-arrestin-2 to all five DARs was determined using the DiscoveRx PathHunter complementation assay (DiscoverX Inc, Fremont, Calif.), as previously described (Free, et. al., 2014; Conroy, et. al., 2015).”
Each PAM was also examined in the absence of DA as an agonist, as indicated.

D5 [2] = target: T2, D5; assay: D5 cAMP assay; details: fold change of dopamine EC50, 50 μM compound
Procedure: cAMP Accumulation Assay. Assays were performed on D1R-HEK293 (Codex Biosolutions, Gaithersburg, Md.) cells stably expressing the human D1R. HEK293 cell lines were maintained in Dulbecco's modified Eagles medium, supplemented with 10% fetal bovine serum, 100 U/ml penicillin, 100 μg/ml streptomycin, 1 mM sodium pyruvate, and 250 μg/ml G418 and incubated at 37° C., 5% CO2, and 90% humidity. […] After 18-24 h incubation at 37° C., 5% CO2, and 90% humidity, the media was removed and replaced with 5 μL/well PBS. […] Briefly, antibody and working solution was added to each well according to the manufacturer's protocol, and incubated in the dark at room temperature for 60 min. Following incubation, enzyme acceptor reagent was added to the plates and luminescence (RLU) was measured (FDSS μCell, Hamamatsu Photonics K. K., Bridgewater, N.J.) following a 3 h incubation in the dark at room temperature.

T2 sequence (P21918 whole entry): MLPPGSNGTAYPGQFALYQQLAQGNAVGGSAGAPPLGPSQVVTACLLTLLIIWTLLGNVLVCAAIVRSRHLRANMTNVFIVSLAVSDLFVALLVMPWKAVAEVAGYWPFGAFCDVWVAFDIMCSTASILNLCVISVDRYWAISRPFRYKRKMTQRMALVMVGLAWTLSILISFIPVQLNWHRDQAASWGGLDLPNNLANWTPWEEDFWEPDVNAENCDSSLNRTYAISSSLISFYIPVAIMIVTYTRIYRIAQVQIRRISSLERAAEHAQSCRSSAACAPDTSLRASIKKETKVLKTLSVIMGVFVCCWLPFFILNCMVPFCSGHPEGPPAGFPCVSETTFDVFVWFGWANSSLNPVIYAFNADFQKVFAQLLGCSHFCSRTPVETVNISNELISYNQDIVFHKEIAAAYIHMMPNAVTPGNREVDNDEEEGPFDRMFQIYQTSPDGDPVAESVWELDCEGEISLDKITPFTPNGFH
Chain of human D1R (P21728 whole entry): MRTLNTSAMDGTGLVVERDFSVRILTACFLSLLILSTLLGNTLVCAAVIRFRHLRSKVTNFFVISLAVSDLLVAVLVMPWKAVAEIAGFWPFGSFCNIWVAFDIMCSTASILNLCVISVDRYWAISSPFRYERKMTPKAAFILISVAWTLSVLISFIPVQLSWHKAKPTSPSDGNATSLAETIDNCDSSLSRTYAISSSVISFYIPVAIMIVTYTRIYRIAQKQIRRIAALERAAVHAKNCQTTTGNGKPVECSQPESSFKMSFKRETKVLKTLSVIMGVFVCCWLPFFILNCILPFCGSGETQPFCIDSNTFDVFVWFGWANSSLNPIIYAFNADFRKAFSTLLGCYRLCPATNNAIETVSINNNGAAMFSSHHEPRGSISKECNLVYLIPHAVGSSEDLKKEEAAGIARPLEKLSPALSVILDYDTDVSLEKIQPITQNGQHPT

| Structure (SMILES) | D4 Beta-Arrestin: DA + 50 μM PAM, Fold Change EC50 (D4R) | D5 Beta-Arrestin: DA + 50 μM PAM, Fold Change EC50 (D5 [1]) | other results |
| --- | --- | --- | --- |
| Cn1c2ccccc2c(=O)c2c(=O)n(C3CCCCCC3)c(C3CCCCC3)nc21 |  |  | Dopamine D1-β-arrestin Assay: DA + 50 μM PAM, Fold Change EC50 (human D1R; Table 5, 50 μM compound): 3.85; Dopamine D4-β-arrestin Assay: DA + 50 μM PAM, Fold Change EC50 (D4R; Table 7, 50 μM compound): 0.95; Dopamine D5-β-arrestin Assay: DA + 50 μM PAM, Fold Change EC50 (D5 [1]; Table 6, 50 μM compound): 1.71 |
| Oc1cc2c(cc1O)[C@H]1c3ccccc3CN[C@@H]1CC2 (racemic) [dihydrexidine, reference compound] |  |  | Emax (human D1R; CHO-K1, read-out: dihydrexidine Emax): 70.5% |
| Cc1ccc(-n2c(C3CCCCC3)nc3c(c(=O)c4ccccc4n3C)c2=O)cc1 [Compound 2] | 0.64 | 2.64 |  |
| Cc1ccc(-n2c(CC(C)C)nc3c(c(=O)c4ccccc4n3C)c2=O)cc1 [Compound 5] | 1.06 | 1.32 | PAM activity at the D5 receptor (D5 [1]; 50 μM compound): none of these analogs have PAM activity; fold change of dopamine EC50 for β-arrestin recruitment to D5R (D5 [1]; 50 μM compound): 1.3 fold; D5 cAMP: DA + 50 μM PAM, Fold Change EC50 (D5 [2]): 2.23 |
| CC(C)Cc1nc2c(c(=O)c3ccccc3n2C)c(=O)n1-c1ccc(Cl)cc1 [Compound 6] | 0.47 | 0.81 | PAM activity at the D5 receptor (D5 [1]; 50 μM compound): none of these analogs have PAM activity; fold change of dopamine EC50 for β-arrestin recruitment to D5R (D5 [1]; 50 μM compound): 0.8 fold |
| CC(C)Cc1nc2c(c(=O)c3ccccc3n2C)c(=O)n1-c1cccc(Cl)c1 [Compound 7] | 0.57 | 0.80 | PAM activity at the D5 receptor (D5 [1]; 50 μM compound): none of these analogs have PAM activity; fold change of dopamine EC50 for β-arrestin recruitment to D5R (D5 [1]; 50 μM compound): 0.8 fold |
| COc1ccc(-n2c(CC(C)C)nc3c(c(=O)c4ccccc4n3C)c2=O)cc1Cl [Compound 8] | 1.20 | 1.53 |  |
| COc1ccc(-n2c(CC(C)C)nc3c(c(=O)c4ccccc4n3C)c2=O)cc1 [Compound 9] | 1.58 | 2.93 |  |
| Cn1c2ccccc2c(=O)c2c(=O)[nH]c(C3CCCC3)nc21 [Compound 12] | 0.71 | 0.66 |  |
| Cn1c2ccccc2c(=O)c2c(=O)n(-c3ccc(Cl)cc3)c(CC3CCCCC3)nc21 [Compound 17] | 1.38 | 1.09 | D5 cAMP: DA + 50 μM PAM, Fold Change EC50 (D5 [2]): 1.43 |

More lines, main results first:

| D4 Beta-Arrestin: DA + 50 μM PAM, Fold Change EC50 (D4R) | D5 Beta-Arrestin: DA + 50 μM PAM, Fold Change EC50 (D5 [1]) | Structure (SMILES) | other results |
| --- | --- | --- | --- |
| 0.61 | 2.03 | Cn1c2ccccc2c(=O)c2c(=O)n(-c3ccc(Cl)cc3)c(C3CCCCC3)nc21 [Compound 3] |  |
| 0.61 | 0.77 | COc1ccc(-n2c(C3CCCCC3)nc3c(c(=O)c4ccccc4n3C)c2=O)cc1Cl [Compound 4] |  |
| 1.33 | 3.11 | Cc1ccc(-n2c(C3CCCC3)nc3c(c(=O)c4ccccc4n3C)c2=O)cc1 [Compound 10] |  |
| 1.46 | 4.10 | COc1ccc(-n2c(C3CCCC3)nc3c(c(=O)c4ccccc4n3C)c2=O)cc1 [Compound 11] |  |
| 1.90 | 0.91 | Cn1c2ccccc2c(=O)c2c(=O)n(-c3cccc(Cl)c3)c(C3CCCC3)nc21 [Compound 14] |  |
| 1.33 | 1.51 | COc1ccc(-n2c(C3CCCC3)nc3c(c(=O)c4ccccc4n3C)c2=O)cc1Cl [Compound 15] |  |
| 1.57 | 1.35 | Cn1c2ccccc2c(=O)c2c(=O)n(-c3cccc(Cl)c3)c(CC3CCCCC3)nc21 [Compound 18] | D5 cAMP: DA + 50 μM PAM, Fold Change EC50 (D5 [2]): 0.34 |
